# According to US9399635B2, “Pyrazole derivative” (GREEN TECH CO., LTD., priority 2011, dated 2016):
row,melting point,SMILES
1,90 to 96 °C,"COCCOc1ccc(/C=C/c2cc(/C=C/c3ccc4cc[nH]c4c3)[nH]n2)c(OC)c1 [Example 66, 3-[(1E)-2-(1H-indol-6-yl)ethenyl]-5-[(1E)-2-[2-methoxy-4-(2-methoxyethoxy)phenyl]ethenyl]-1H-pyrazole]"
2,103 to 109 °C,"COc1ccc(Br)c(/C=C/c2cc(/C=C/c3ccc4cc[nH]c4c3)[nH]n2)c1 [Example 67, 3-[(1E)-2-(2-bromo-5-methoxyphenyl)ethenyl]-5-[(1E)-2-(1H-indol-6-yl)ethenyl]-1H-pyrazole]"
3,211 to 214 °C,"COc1ccc(COc2ccc(/C=C/c3cc(/C=C/c4ccc5cc[nH]c5c4)[nH]n3)c(OC)c2)cc1 [Example 68, 3-[(1E)-2-(1H-indol-6-yl)ethenyl]-5-[(1E)-2-[2-methoxy-4-(4-methoxybenzyloxy)phenyl]ethenyl]-1H-pyrazole]"
4,107 to 120 °C,"COc1cc(OCc2ccccn2)ccc1/C=C/c1cc(/C=C/c2cccc3ncccc23)[nH]n1 [Example 69, 3-[(1E)-2-(quinolin-5-yl)ethenyl]-5-[(1E)-2-[2-methoxy-4-(2-pyridylmethoxy)phenyl]ethenyl]-1H-pyrazole]"
5,89 to 93 °C,"COc1cc(OCc2ccccn2)ccc1/C=C/c1cc(/C=C/c2ccc3ccn(Cc4ccccc4)c3c2)[nH]n1 [Example 70, 3-[(1E)-2-(1-benzyl-1H-indol-6-yl)ethenyl]-5-[(1E)-2-[2-methoxy-4-(2-pyridylmethoxy)phenyl]ethenyl]-1H-pyrazole]"
6,143 to 148 °C,"Brc1cc(N2CCOCC2)ccc1/C=C/c1cc(/C=C/c2ccc3cc[nH]c3c2)[nH]n1 [Example 71, 3-[(1E)-2-[2-bromo-4-(morpholin-4-yl)phenyl]ethenyl]-5-[(1E)-2-(1H-indol-6-yl)ethenyl]-1H-pyrazole]"
7,182 to 187 °C,"COc1cc(OCc2ccccn2)ccc1/C=C/c1cc(/C=C/c2ccc3ccn(C(C)=O)c3c2)[nH]n1 [Example 73, 3-[(1E)-2-(1-acetyl-1H-indol-6-yl)ethenyl]-5-[(1E)-2-[2-methoxy-4-(2-pyridylmethoxy)phenyl]ethenyl]-1H-pyrazole]"
8,212 to 214 °C,"COc1cc(OCc2ccccn2)ccc1/C=C/c1cc(/C=C/c2ccc3ccn(S(C)(=O)=O)c3c2)[nH]n1 [Example 74, 3-[(1E)-2-(1-methanesulfonyl-1H-indol-6-yl)ethenyl]-5-[(1E)-2-[2-methoxy-4-(2-pyridylmethoxy)phenyl]ethenyl]-1H-pyrazole]"
9,219 to 223 °C,"COc1cc(OCc2ccccn2)ccc1/C=C/c1cc(/C=C/c2c[nH]c3ncccc23)[nH]n1 [Example 75, 3-[(1E)-2-(7-aza-1H-indol-3-yl)ethenyl]-5-[(1E)-2-[2-methoxy-4-(2-pyridylmethoxy)phenyl]ethenyl]-1H-pyrazole]"
10,109 to 112 °C,"COc1cc(OCCN(C)C)ccc1/C=C/c1cc(/C=C/c2ccc3cc[nH]c3c2)[nH]n1 [Example 76, 3-[(1E)-2-[4-[2-(dimethylamino)ethoxy]-2-methoxyphenyl]ethenyl]-5-[(1E)-2-(1H-indol-6-yl)ethenyl]-1H-pyrazole]"
11,208 to 212 °C,"CC(C)c1ccc(/C=C/c2cc(/C=C/c3ccc4cc[nH]c4c3)[nH]n2)cc1 [Example 78, 3-[(1E)-2-(1H-indol-6-yl)ethenyl]-5-[(1E)-2-(4-isopropylphenyl)ethenyl]-1H-pyrazole]"
12,104 to 108 °C,"COc1cc(OCC2CCCCC2)ccc1/C=C/c1cc(/C=C/c2ccc3cc[nH]c3c2)[nH]n1 [Example 80, 3-[(1E)-2-[4-(cyclohexylmethoxy)-2-methoxyphenyl]ethenyl]-5-[(1E)-2-(1H-indol-6-yl)ethenyl]-1H-pyrazole]"
13,102 to 110 °C,"COc1cc(OCCn2cccc2)ccc1/C=C/c1cc(/C=C/c2ccc3cc[nH]c3c2)[nH]n1 [Example 81, 3-[(1E)-2-(1H-indol-6-yl)ethenyl]-5-[(1E)-2-[2-methoxy-4-[2-(pyrrol-1-yl)ethoxy]phenyl]ethenyl]-1H-pyrazole]"
